{"source": "patent US7897582B2", "about": "“Oligonucleotide compositions and methods for the modulation of the expression of B7 protein” (Isis Pharmaceuticals, Inc., priority 2003, dated 2011)", "key": {"[1]": {"details": "mouse, in vivo", "experimental": "Antisense oligonucleotides (ASOs) were dissolved in saline and used to intratracheally dose mice every day, four times per day, from days 15-26 of the OVA sensitization and challenge protocol. Specifically, the mice were anesthetized with isofluorane and placed on a board with the front teeth hung from a line. The nose was covered and the animal's tongue was extended with forceps and […] of various doses of ASO, or an equivalent volume of saline (control) was placed at the back of the tongue until inhaled into the lung."}, "human B7-2": {"system": "human B7-2", "assay": "Cell surface expression of B7-2 in transfected COS-7 cells by flow cytometry", "type": "cell-based", "details": "FIG. 5", "summary_of_the_method": "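COS-7 cells transfected with B7-2 plasmid (calcium phosphate), then treated with antisense oligonucleotides with 15 μg/mL Lipofectin for 4 h, followed by oligonucleotide in DMEM/10% FCS. After 24-48 h, cells stained with FITC- or PE-conjugated anti-CD86 for 30 min at 4 °C and analysed by flow cytometry.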"}, "CD3": {"system": "CD3", "assay": "CD3 cell surface expression in antigen presenting cells, flow cytometry", "type": "cell-based, human", "experimental": "(§1) Monocytes were cultured and treated with oligonucleotides as follows. For dendritic cells, EDTA-treated blood was layered onto Polymorphprep™ (1.113 g/mL; Nycomed, Oslo, Norway) and sedimented at 500×g for 30 minutes at 20° C. Mononuclear cells were harvested from the interface. Cells were washed with PBS, with serum-free RPMI media (Moore et al., N.Y. J. Med., 1968, 68, 2054) and then with RPMI containing 5% fetal bovine serum (FBS). Monocytes were selected by adherence to plastic cell culture cell culture dishes for 1 h at 37° C. After adherence, cells were treated with oligonucleotides in serum-free RPMI containing Lipofectin™ (8 μg/mL). After 4 hours, the cells were washed. Then RPMI containing 5% FBS and oligonucleotide was added to cells along with interleukin-4 (IL-4; R&D Systems, Minneapolis, Minn.) (66 ng/mL) and granulocyte-macrophage colony-stimulating factor (GM-CSF; R&D Systems, Minneapolis, Minn.) (66 ng/mL) to stimulate differentiation (Romani et al., J. Exp. Med., 1994, 180, 83, 1994). Cells were incubated for 48 hours, after which cell surface expression of various molecules was measured by flow cytometry.\n(§2) Mononuclear cells isolated from fresh blood were treated with oligonucleotide in the presence of cationic lipid to promote cellular uptake. […] Expression of B7-2 protein was measured by flow cytometry according to the methods of Example 2. […]"}, "CD4+ T cells": {"system": "CD4+ T cells", "assay": "T cell proliferation assay, [3H]thymidine incorporation, oligonucleotide-treated APCs plus CD4+ T cells", "type": "cell-based, human", "details": "APCs treated before cytokine induction; FIG. 7", "experimental": "The ability of ISIS 2302 and ISIS 10373 to inhibit T cell proliferation was evaluated as follows. Monocytes treated with oligonucleotide and cytokines (as in Example 6) were used as antigen presenting cells in a T cell proliferation assay. The differentiated monocytes were combined with CD4+ T cells from a separate donor. After 48 hours, proliferation was measured by [^3H]thymidine incorporation.\nFor T cell proliferation assays, cells were isolated from EDTA-treated whole blood as described above, except that a faster migrating band containing the lymphocytes was harvested from just below the interface. Cells were washed as described in Example 6 after which erythrocytes were removed by NH4Cl lysis. T cells were purified using a T cell enrichment column (R&D Systems, Minneapolis, Minn.) essentially according to the manufacturer's directions. CD4+ T cells were further enriched from the entire T cell population by depletion of CD8+ cells with anti-CD8-conjugated magnetic beads (AMAC, Inc., Westbrook, Me.) according to the manufacturer's directions. T cells were determined to be >80% CD4+ by flow cytometry using Cy-chrome-conjugated anti-CD4 mAb (PharMingen, San Diego, Calif.).\nAntigen presenting cells (APCs) were isolated as described in Example 6 and treated with mitomycin C (25 μg/mL) for 1 hour then washed 3 times with PBS. APCs (10^5 cells) were then combined with 4×10^4 CD4+ T cells in 350 μL of culture media. Where indicated, purified CD3 mAb was also added at a concentration of 1 μg/mL. During the last 6 hours of the 48 hour incubation period, proliferation was measured by determining uptake of 1.5 μCi of [^3H]-thymidine per well. The cells were harvested onto filters and the radioactivity measured by scintillation counting."}, "B7-1": {"system": "B7-1", "assay": "B7-1 cell surface expression in antigen presenting cells, flow cytometry", "type": "cell-based, human", "experimental": "as §1, §2"}, "ICAM-1": {"system": "ICAM-1", "assay": "ICAM-1 expression in antigen presenting cells, flow cytometry", "type": "cell-based, human", "details": "dose of 1 μM", "experimental": "as §1, §2"}, "B7-2": {"system": "B7-2", "assay": "B7-2 expression in antigen presenting cells (blood monocytes with IL-4 and GM-CSF), flow cytometry", "type": "cell-based, human", "details": "FIG. 6", "experimental": "The ability of ISIS 10373 to inhibit expression from the native B7-2 gene in antigen presenting cells (APCs) was evaluated as follows.\nas §1, with “Then RPMI containing 5% FBS and oligonucleotide was added to cells along with interleukin-4 (IL-4; R&D Systems, Minneapolis, Minn.) (66 ng/mL) and granulocyte-macrophage colony-stimulating factor (GM-CSF; R&D Systems, Minneapolis, Minn.) (66 ng/mL) to stimulate differentiation (Romani et al., J. Exp. Med., 1994, 180, 83, 1994).” left out\nas §2"}, "HLA-DR": {"system": "HLA-DR", "assay": "HLA-DR cell surface expression in antigen presenting cells, flow cytometry", "type": "cell-based, human", "experimental": "as §1, §2"}, "human B7-1": {"system": "human B7-1", "assay": "Cell surface expression of B7-1 in pcB7-1-transfected COS-7 cells by flow cytometry", "type": "cell-based", "details": "FIG. 5", "experimental": "The ability of oligonucleotides to inhibit B7-1 expression was evaluated by measuring the cell surface expression of B7-1 in transfected COS-7 cells by flow cytometry.\nA T-175 flask was seeded at 75% confluency with COS-7 cells (ATCC accession No. CRL 1651). The plasmid pcB7-1 was introduced into cells by standard calcium phosphate transfection. Following a 4 hour transfection, the cells were trypsinized and seeded in 12-well dishes at 80% confluency. The cells were allowed to adhere to the plastic for 1 hour and were then washed with phosphate-buffered saline (PBS). OptiMEM™ (GIBCO-BRL, Gaithersburg, Md.) medium was added along with 15 μg/mL of Lipofectin™ (GIBCO-BRL, Gaithersburg, Md.) and oligonucleotide at the indicated concentrations. After four additional hours, the cells were washed with phosphate buffered saline (PBS) and incubated with fresh oligonucleotide at the same concentration in DMEM (Dulbecco et al., Virol., 1959, 8, 396; Smith et al., Virol., 1960, 12, 185) with 10% fetal calf sera (FCS).\nIn order to monitor the effects of oligonucleotides on cell surface expression of B7-1, treated COS-7 cells were harvested by brief trypsinization 24-48 hours after oligonucleotide treatment. The cells were washed with PBS, then resuspended in 100 μL of staining buffer (PBS, 0.2% BSA, 0.1% azide) with 5 μL conjugated anti-B7-1-antibody (i.e., anti-hCD80-FITC, Ancell, Bayport, Minn.; FITC: fluorescein isothiocyanate). The cells were stained for 30 minutes at 4° C., washed with PBS, resuspended in 300 μL containing 0.5% paraformaldehyde. Cells were harvested and the fluorescence profiles were determined using a flow cytometer.\nB7 antisense oligonucleotides were tested for their effect on cell surface expression of both B7-1 and B7-2. Cell surface expression was measured as described in Example 1. Experiments were done for both human B7 and mouse B7.\nThe oligonucleotides were screened as described in Example 2 except that the concentration of oligonucleotide was varied as shown in Table 18."}, "B7.2 mRNA": {"system": "B7.2 mRNA", "assay": "B7.2 mRNA in lung and draining lymph nodes of ovalbumin-challenged mice, quantitative RT-PCR", "type": "in vivo, mouse", "experimental": "(§3) RNA was harvested from experimental lungs removed on day 28 of the OVA protocol. B7.2 and B7.1 levels were measured by quantitative RT-PCR using the Applied Biosystems PRISM 7700 Sequence Detection System (Applied Biosystems, Foster City, Calif.). Primers and probes used for these studies were synthesized by Operon Technologies (Alameda, Calif.)."}, "B7-1 mRNA": {"system": "B7-1 mRNA", "assay": "Mouse B7-1 target mRNA reduction in L-929 fibroblasts (RT-PCR)", "type": "cell-based", "details": "100 nM", "experimental": "Both of these oligonucleotides are phosphorothioates with 2′-MOE modifications on nucleotides 1-5 and 16-20, and 2′-deoxy at positions 6-15. These ASOs were identified by mouse-targeted ASO screening by target mRNA reduction in mouse cell lines. For B7-2, 19 mouse-targeted ASOs were screened by target mRNA reduction (Northern analysis) in IC-21 macrophages. Dose-response confirmation led to selection of ISIS 121874 (>70% reduction at 25 nM). For B7-1, 22 mouse-targeted ASOs were screened by target mRNA reduction (RT-PCR) in L-929 fibroblasts. Dose-response confirmation led to selection of ISIS 121844 (>70% reduction at 100 nM). No cross hybridization was predicted, and no cross-target reduction was detected in transfected cells."}, "[2]": {"system": "ovalbumin-challenged Balb/c mice", "assay": "Ovalbumin-induced mouse model of allergic inflammation (Penh, BAL cells, histology, cytokines, spleen)", "type": "in vivo", "experimental": "In the mouse model of allergic inflammation, mice were sensitized and challenged with aerosolized chicken ovalbumin (OVA). Airway responsiveness was assessed by inducing airflow obstruction with a methacholine aerosol using a noninvasive method. This methodology utilized unrestrained conscious mice that are placed into the main chamber of a plthysmograph (Buxco Electronics, Inc., Troy, N.Y.). Pressure differences between this chamber and a reference chamber were used to extrapolate minute volume, breathing frequency and enhanced pause (Penh). Penh is a dimensionless parameter that is a function of total pulmonary airflow in mice (i.e., the sum of the airflow in the upper and lower respiratory tracts) during the respiratory cycle of the animal. The lower the Penh, the greater the airflow. This parameter closely correlates with lung resistance as measured by traditional invasive techniques using ventilated animals (Hamelmann . . . Gelfand, 1997). Dose-response data were plotted as raw Penh values to increasing concentrations of methacholine. […]\nFemale Balb/c mice (Charles Rivers Laboratory, Taconic Farms, N.Y.) were maintained in micro-isolator cages housed in a specific pathogen-free (SPF) facility. […] Animals were analyzed about 24 hours following the last nebulization using the Buxco electronics Biosystem. Lung function (Penh), lung histology (cell infiltration and mucus production), target mRNA reduction in the lung, inflammation (BAL cell type & number, cytokine levels), spleen weight and serum AST/ALT were determined. […]\nCytospins of cells recovered from BAL fluid were prepared using a Shandon Cytospin 3 (Shandon Scientific LTD, Cheshire, England). […] Total cell counts were quantified by hemocytometer and, together with the percent type by differential, were used to calculate specific cell number.\nBefore resection, lungs were inflated with 0.5 ml of 10% phosphate-buffered formalin and fixed overnight at 4° C. […] Parasagittal sections were analyzed by bright-field microscopy. Mucus cell content was assessed as the airway epithelium staining with PAS. […]"}, "B7.1 mRNA": {"system": "B7.1 mRNA", "assay": "B7.1 mRNA in lung and draining lymph nodes of ovalbumin-challenged mice, quantitative RT-PCR", "type": "in vivo, mouse", "details": "lung tissue and draining lymph nodes of allergen-challenged mice", "experimental": "as §3"}}, "note": "Strand notation (5' to 3'): a small letter for the sugar, then the base; units joined by * are phosphorothioate-linked, units joined directly phosphodiester-linked; [ ] holds rarer units or linkages, { } end groups; capitals alone tell only the bases. e = 2'-O-(2-methoxyethyl) (MOE); d = 2'-deoxy (DNA)"}
{"substance": "5′-TCCGTCATCGCTCCTCAGGG-3′ [ISIS 13920]", "values": [{"measurement": "deposition pattern in the lung", "setting": "[1]", "result": "taken up throughout the lung, most strongly by antigen presenting cells (APCs) and alveolar epithelium"}]}
{"substance": "ISIS 10373: phosphorothioate 20-mer to human B7-2 mRNA 0011-0030; 5′-UTR; SEQ ID NO: 16 (antisense dT*dG*dC*dG*dA*dG*dC*dT*dC*dC*dC*dC*dG*dT*dA*dC*dC*dT*dC*dC)", "values": [{"measurement": "effect on B7-2 expression (specificity)", "setting": "human B7-2", "result": "inhibits B7-2 expression"}, {"measurement": "cell surface expression of CD3", "setting": "CD3", "result": "did not affect"}, {"measurement": "T cell proliferative response", "setting": "CD4+ T cells", "result": "blocked"}, {"measurement": "cell surface expression of B7-1", "setting": "B7-1", "result": "did not affect"}, {"measurement": "effect on ICAM-1 expression", "setting": "ICAM-1", "result": "only a slight effect"}, {"measurement": "IC50", "setting": "B7-2", "result": "~250", "unit": "nM"}, {"measurement": "cell surface expression of HLA-DR", "setting": "HLA-DR", "result": "did not affect"}, {"measurement": "effect on B7-1 expression (specificity)", "setting": "human B7-1", "result": "little or no effect"}]}
{"substance": "ISIS 121844: antisense oligonucleotide targeted to mouse B7.1; SEQ ID NO: 286; phosphorothioate, 2′-MOE on nucleotides 1-5 and 16-20 (antisense GCTCAGCCTTTCCACTTCAG; sugars from the 5' end e5 d10 e5, all phosphorothioate, methylation of C not given here)", "values": [{"measurement": "reduction of B7.2 mRNA in the lung", "setting": "B7.2 mRNA; lung", "result": 80, "unit": "%"}, {"measurement": "B7.2 mRNA", "setting": "B7.2 mRNA; lung tissue and draining lymph nodes of allergen-challenged mice", "result": "reduced"}, {"measurement": "target mRNA reduction", "setting": "B7-1 mRNA", "result": "> 70", "unit": "%"}, {"measurement": "allergen-induced airway eosinophilia", "setting": "[2]; BAL fluid", "result": "reduced"}, {"measurement": "airway response to methacholine (Penh response)", "setting": "[2]; intratracheal ASO, days 15-26", "result": "no effect"}, {"measurement": "PMN numbers in BAL fluid", "setting": "[2]; mouse, in vivo", "result": "reduced"}, {"measurement": "B7.1 mRNA", "setting": "B7.1 mRNA", "result": "reduced"}]}
